Laboratory results reported in article PMC9837865 (Pharmacology, biochemistry, and behavior, 2022).
Like-named read-outs stand apart in the source and are kept apart here.

Experiments:
hCB2 receptor [1] = target: T1, hCB2 receptor (Homo sapiens, UniProt P34972); assay: Agonist-stimulated [35S]GTPγS binding, hCB2 HEK293 membranes; settings: for greater potency at hCB2 receptors than at hCB1 receptors: [35S]GTPγS potency ratio
hCB1 receptor [2] = target: T2, hCB1 receptor (Homo sapiens, UniProt P21554); assay: Agonist-stimulated [35S]GTPγS binding, hCB1 HEK293 membranes
hCB2 receptor [3] = target: T1, hCB2 receptor; assay: [3H]CP55,940 competition binding at hCB2 in HEK293 cell membranes; settings: for greater affinity at hCB2 receptors than at hCB1: binding affinity ratio hCB2 over hCB1
hCB1 receptor [4] = target: T2, hCB1 receptor; assay: [3H]CP55,940 competition binding at hCB1 in HEK293 cell membranes; settings: for Ki: value in parenthesis
male ICR mice [5] = assay: Rectal temperature time course
male ICR mice [6] = assay: Rectal temperature dose-effect; settings: for maximal hypothermia, difference from that produced by Δ9-THC: across the dose range tested
[7] = radiotelemetry, 6-h period; ref Sparkes et al., 2022; cited from earlier work
[8] = [35S]GTPγS Turnover CB2 EC50, value in parenthesis
[9] = [35S]GTPγS Turnover CB2 pEC50, pEC50 ± SEM
[10] = CB2 Ki, [3H]CP55,940 displacement, value in parenthesis
[11] = CB1 Ki, [3H]CP55,940 displacement
[12] = 3 mg/kg i.p., compared to vehicle at same timepoint
[13] = 10 mg/kg i.p., compared to vehicle at same timepoint
[14] = 100 mg/kg i.p., compared to vehicle at same timepoint
[15] = [3H]CP55,940 displacement, pKi ± SEM

T2 sequence (P21554 whole entry): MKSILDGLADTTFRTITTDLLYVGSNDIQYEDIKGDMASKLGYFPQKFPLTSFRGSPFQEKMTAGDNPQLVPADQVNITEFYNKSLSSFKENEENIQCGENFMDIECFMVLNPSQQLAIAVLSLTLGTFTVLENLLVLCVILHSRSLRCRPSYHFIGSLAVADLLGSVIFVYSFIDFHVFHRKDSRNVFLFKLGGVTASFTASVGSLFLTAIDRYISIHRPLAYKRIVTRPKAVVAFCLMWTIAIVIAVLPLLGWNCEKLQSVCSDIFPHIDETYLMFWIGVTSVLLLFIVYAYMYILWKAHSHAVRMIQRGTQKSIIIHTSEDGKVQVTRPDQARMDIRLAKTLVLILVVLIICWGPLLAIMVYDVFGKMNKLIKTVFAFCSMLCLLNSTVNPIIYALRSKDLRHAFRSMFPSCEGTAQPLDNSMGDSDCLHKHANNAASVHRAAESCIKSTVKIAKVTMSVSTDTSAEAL
T1 sequence (P34972 whole entry): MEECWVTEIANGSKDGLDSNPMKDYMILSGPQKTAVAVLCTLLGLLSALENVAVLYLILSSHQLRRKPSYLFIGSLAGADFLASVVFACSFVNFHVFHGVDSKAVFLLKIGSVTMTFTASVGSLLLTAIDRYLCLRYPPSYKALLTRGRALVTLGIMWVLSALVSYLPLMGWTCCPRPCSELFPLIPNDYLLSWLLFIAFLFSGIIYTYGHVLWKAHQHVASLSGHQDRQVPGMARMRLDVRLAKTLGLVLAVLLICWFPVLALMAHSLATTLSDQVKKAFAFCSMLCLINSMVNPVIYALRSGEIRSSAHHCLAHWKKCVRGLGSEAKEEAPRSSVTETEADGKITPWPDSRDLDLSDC

Compound	[35S]GTPγS Turnover CB2 Emax (hCB2 receptor [1])	EC50 (hCB2 receptor [1]; [8]) [nM]	EC50 (hCB1 receptor [2]) [nM]	[35S]GTPγS Turnover CB1 Emax (hCB1 receptor [2])	Ki (hCB2 receptor [3]; [10]) [nM]	Ki (hCB1 receptor [4]; [11]) [nM]	duration of significant hypothermic effect (male ICR mice [5]; [12]) [h]	maximal hypothermia, difference from that produced by Δ9-THC (male ICR mice [6]) [°C]	greater potency at hCB2 receptors than at hCB1 receptors (hCB2 receptor [1]) [fold]	greater affinity at hCB2 receptors than at hCB1 (hCB2 receptor [3]) [fold]	other results
CCOC(=O)C(NC(=O)c1nn(CCCCCF)c2ccccc12)C(C)(C)C (stereo not drawn) [5F-EDMB-PINACA, ethyl 2-(1-(5-fluoropentyl)-1H-indazole-3-carboxamido)-3,3-dimethylbutanoate]	161 ± 8.36 3 % stimulation over basal	0.442	1.6	387 ± 69.0 ^† 3 % stimulation over basal	0.312	0.378	3				EC50 (hCB2 receptor [1]; [9]): 0.437 nM
COC(=O)[C@@H](NC(=O)c1cn(CCCCCF)c2ccccc12)C(C)(C)C [5F-MDMB-PICA, methyl (2S)-2-{[1-(5-fluoropentyl)-1H-indole-3-carbonyl]amino}-3,3-dimethylbutanoate]	189 ± 25.2 3 % stimulation over basal	1.65	5.07	380 ± 27.4 ^^ 3 % stimulation over basal	0.437	1.25	7				
COC(=O)[C@@H](NC(=O)c1cn(CCCCCF)c2ccccc12)C(C)C [5F-MMB-PICA, methyl (2S)-2-[[1-(5-fluoropentyl)indole-3-carbonyl]amino]-3-methylbutanoate]	77.8 ± 13.3 3 % stimulation over basal	8.19	27	295 ± 21.2 ^† 3 % stimulation over basal	3.4	6.45		≤ 1.5			duration of significant hypothermic effect (male ICR mice [5]; [13]): 3 h
CCCCn1nc(C(=O)N[C@@H](Cc2ccccc2)C(N)=O)c2ccccc21 [APP-BINACA, N-[(2S)-1-amino-1-oxo-3-phenylpropan-2-yl]-1-butylindazole-3-carboxamide]	83.2 ± 2.72 3 % stimulation over basal	2.24	344	180 ± 25.1 3 % stimulation over basal	9.34	107			153	12	hypothermia [7]: failed to produce any hypothermia; duration of significant hypothermic effect (male ICR mice [5]; [14]): 4 h
CC1(C)C(C(=O)c2cn(Cc3ccc(F)cc3)c3ccccc23)C1(C)C [FUB-144, (1-(4-fluorobenzyl)-1H-indol-3-yl)(2,2,3,3-tetramethylcyclopropyl)methanone]	194 ± 8.45 3 % stimulation over basal	4.61	90.6	218 ± 31.5 4 % stimulation over basal	1.19	27.2		≤ 1.5	20	23	Ki (hCB2 receptor [3]; CB2 pKi, [3H]CP55,940 displacement, pKi ± SEM): 1.17 nM; duration of significant hypothermic effect (male ICR mice [5]; 20 mg/kg i.p.): 1 h
O=C(NC12CC3CC(CC(C3)C1)C2)c1nn(Cc2ccc(F)cc2)c2ccccc12 [FUB-AKB48, N-((3s,5s,7s)-adamantan-1-yl)-1-(4-fluorobenzyl)-1H-indazole-3-carboxamide]	131 ± 16.5 4 % stimulation over basal			368 ± 55.5 ^‡ 4 % stimulation over basal				≤ 1.5	16		[35S]GTPγS Turnover CB2 pEC50 (hCB2 receptor [1]; pEC50 ± SEM): 9.37 ± 0.318; EC50 (hCB2 receptor [1]; read-out: [35S]GTPγS Turnover CB2 EC50, value in parenthesis): 0.424 nM; [35S]GTPγS Turnover CB1 pEC50 (hCB1 receptor [2]; pEC50 ± SEM): 8.16 ± 0.162; EC50 (hCB1 receptor [2]; read-out: [35S]GTPγS Turnover CB1 EC50, value in parenthesis): 6.94 nM; CB2 pKi (hCB2 receptor [3]; [15]): 9.08 ± 0.0188; Ki (hCB2 receptor [3]; read-out: CB2 Ki, [3H]CP55,940 displacement, value in parenthesis): 0.823 nM; CB1 pKi (hCB1 receptor [4]; [15]): 8.89 ± 0.265; Ki (hCB1 receptor [4]; read-out: CB1 Ki, [3H]CP55,940 displacement): 1.3 nM; duration of significant hypothermic effect (male ICR mice [5]; [13]): ≤ 1 h
C=CCCCn1nc(C(=O)NC(C(=O)OC)C(C)(C)C)c2ccccc21 (stereo not drawn) [MDMB-4en-PINACA, methyl 3,3-dimethyl-2-{[1-(pent-4-en-1-yl)-1H-indazole-3-carbonyl]amino}butanoate]	63.6 ± 9.95 3 % stimulation over basal	1.34	3.3	304 ± 42.8 ^‡ 3 % stimulation over basal	0.213	1.4	4			7	
C=CCCCn1cc(C(=O)NC(C(=O)OC)C(C)C)c2ccccc21 (stereo not drawn) [MMB-4en-PICA, methyl 3-methyl-2-[(1-pent-4-enylindole-3-carbonyl)amino]butanoate]	77.6 ± 7.17 5 % stimulation over basal	12.4	60.7	298 ± 31.9 ^‡ 4 % stimulation over basal	15.6	39		≤ 1.5			duration of significant hypothermic effect (male ICR mice [5]; 60 mg/kg i.p.): 5 h
COC(=O)C(NC(=O)c1cn(Cc2ccc(F)cc2)c2ccccc12)C(C)C (stereo not drawn) [MMB-FUBICA, methyl 2-(1-(4-fluorobenzyl)-1H-indole-3-carboxamido)-3-methylbutanoate]	52.1 ± 6.73 3 % stimulation over basal	22.1	59.7	278 ± 29.3 ^† 3 % stimulation over basal	22.5	12		≤ 1.5			EC50 (hCB2 receptor [1]; [9]): 22.4 nM; greater affinity for CB1 than CB2 (hCB1 receptor [4]; binding affinity ratio CB1 over CB2): approximately 2 fold; duration of significant hypothermic effect (male ICR mice [5]; 6 mg/kg i.p.): 2 h
CCCCCc1cc(O)c2c(c1)OC(C)(C)[C@@H]1CCC(C)=C[C@@H]21 [Δ^9-THC, Δ^9-tetrahydrocannabinol, reference compound]											lowest dose that decreased temperature (male ICR mice [6]; i.p., compared to vehicle): 30 mg/kg; time of peak hypothermic effect post-injection (male ICR mice [5]; 100 mg/kg i.p.): 1 to 3 h; duration of significant hypothermic effect (male ICR mice [5]; [14]): 8 h; time of peak hypothermic effects (male ICR mice [5]; single dose of each compound, as summarised in the discussion): 2 h
